# Patent US8222247B2, “Modulators of glucocorticoid receptor, AP-1, and/or NF-kappabeta activity and use thereof” (Bristol-Myers Squibb Company, priority 2006, dated 2012)
# Like-named read-outs stand apart in the source and are kept apart here.
# Test system: AP-1 induced transcriptional activity
# Assay: Cellular Transrepressional Assay (AP-1 luciferase reporter in A549 cell, PMA activated)
# Format: cell-based
# Settings: pAP-1-Luc; for AP-1 Max % inh (Cellular Transrepression Assay) / Emax: maximum inhibition, PMA; for EC50: 10 ng/ml PMA, 7 hours, read-out: AP-1 EC50, nM (Cellular Transrepression Assay); for Emax: read-out: AP-1 Max % inh (Cellular Transrepression Assay)
# Protocol: Cellular Transrepressional Assay
# To measure the ability of test molecules to inhibit AP-1 induced transcriptional activity we utilized an A549 cell which was stably transfected with a plasmid containing 7×AP-1 DNA binding sites (pAP-1-Luc plasmid, Stratagene Co. La Jolla, Calif.) followed by the gene for luciferase. Cells were activated with 10 ng/ml of phorbol myristic acid (PMA) plus or minus test molecules for 7 hours. After 7 hours a luciferase reagent was added to measure luciferase enzymatic activity in the cell. After a 10 minute incubation of luciferase reagent with cells, luminescence was measured in a TopCount luminescence counter. Repression of AP-1 activity was calculated as the percentage decrease in the signal induced by PMA alone. Test molecules were analyzed in the concentration range from 0.1 nM to 40 μM. EC50s were determined by using standard curve fitting methods such as Excel fit (Microsoft Co.). An EC50 is the test molecule concentration at which there is a 50% repression of the maximal inhibition of transcription, i.e. a 50% reduction of AP-1 activity.
Structure (SMILES),EC50 [nM],"EC50 (Homo sapiens, A549, 7 h) [nM]",AP-1 Max % inh (Cellular Transrepression Assay) [% inh],"Emax (Homo sapiens, A549, 7 h) [%]"
"CC(C)(C(=O)Nc1nc(Cc2ccc(-c3ccncc3)cc2)cs1)C(c1ccccc1)c1ccncc1 (centres unmarked) [Example 5, 2,2-dimethyl-3-phenyl-3-(4-pyridinyl)-N-(4-(4-(4-pyridinyl)benzyl)-1,3-thiazol-2-yl)propanamide]",,18.7,,89.9
"CC(C)(C(=O)Nc1nccs1)C(c1cccc(F)c1)c1ccc(N2CCOCC2)s1 (centres unmarked) [Example 10, 3-(3-fluorophenyl)-2,2-dimethyl-3-(5-(4-morpholinyl)-2-thienyl)-N-1,3-thiazol-2-ylpropanamide]",,700,,40
"CC(C)(C(=O)Nc1nncs1)C(c1ccccc1)c1ccc(N2CCOCC2)nc1 (centres unmarked) [Example 13, 2,2-dimethyl-3-(6-(4-morpholinyl)-3-pyridinyl)-3-phenyl-N-1,3,4-thiadiazol-2-ylpropanamide]",,245,,42.2
"CC(C)(C(=O)Nc1nccs1)C(c1ccccc1)c1ccc(N2CCOCC2)nc1 (centres unmarked) [Example 14, 2,2-dimethyl-3-(6-(4-morpholinyl)-3-pyridinyl)-3-phenyl-N-1,3-thiazol-2-ylpropanamide]",,62.9,,46
"COc1ccc(-c2ccc(C(c3ccccc3)C(C)(C)C(=O)Nc3nccs3)cn2)cc1 (centres unmarked) [Example 26, 3-(6-(4-methoxyphenyl)-3-pyridinyl)-2,2-dimethyl-3-phenyl-N-1,3-thiazol-2-ylpropanamide]",,316,,41.4
"CCCc1ccc(-c2ccc(C(c3ccccc3)C(C)(C)C(=O)Nc3nncs3)cn2)cc1 (centres unmarked) [Example 30, 2,2-dimethyl-3-phenyl-3-(6-(4-propylphenyl)-3-pyridinyl)-N-1,3,4-thiadiazol-2-ylpropanamide]",,49,,39.4
"CC(C)Cc1ccc(-c2ccc(C(c3ccccc3)C(C)(C)C(=O)Nc3nncs3)cn2)cc1 (centres unmarked) [Example 31, 3-(6-(4-isobutylphenyl)-3-pyridinyl)-2,2-dimethyl-3-phenyl-N-1,3,4-thiadiazol-2-ylpropanamide]",,21.5,,46.8
"CN(C)C(=O)c1ccc(-c2ccc(C(c3ccccc3)C(C)(C)C(=O)Nc3nncs3)cn2)cc1 (centres unmarked) [Example 32, 4-(5-(2,2-dimethyl-3-oxo-1-phenyl-3-(1,3,4-thiadiazol-2-ylamino)propyl)-2-pyridinyl)-N,N-dimethylbenzamide]",,73.9,,43.1
"CC(C)Oc1ccc(-c2ccc(C(c3ccccc3)C(C)(C)C(=O)Nc3nncs3)cn2)cc1 (centres unmarked) [Example 33, 3-(6-(4-isopropoxyphenyl)-3-pyridinyl)-2,2-dimethyl-3-phenyl-N-1,3,4-thiadiazol-2-ylpropanamide]",,24,,37.7
"CC(C)Oc1ccc(-c2ccc(C(c3cccc(F)c3)C(C)(C)C(=O)Nc3nncs3)s2)cc1 (centres unmarked) [Example 38, 3-(3-fluorophenyl)-3-(5-(4-isopropoxyphenyl)-2-thienyl)-2,2-dimethyl-N-1,3,4-thiadiazol-2-ylpropanamide]",,8.43,,23.1
"CC(C)Cc1ccc(-c2ccc(C(c3cccc(F)c3)C(C)(C)C(=O)Nc3nncs3)s2)cc1 (centres unmarked) [Example 39, 3-(3-fluorophenyl)-3-(5-(4-isobutylphenyl)-2-thienyl)-2,2-dimethyl-N-1,3,4-thiadiazol-2-ylpropanamide]",,18.8,,44.2
"CCCc1ccc(-c2ccc(C(c3cccc(F)c3)C(C)(C)C(=O)Nc3nncs3)s2)cc1 (centres unmarked) [Example 40, -(3-fluorophenyl)-2,2-dimethyl-3-(5-(4-propylphenyl)-2-thienyl)-N-1,3,4-thiadiazol-2-ylpropanamide]",5.36,,37.26,

# Further lines, with some results ahead:
EC50 [nM],"EC50 (Homo sapiens, A549, 7 h) [nM]",Structure (SMILES),AP-1 Max % inh (Cellular Transrepression Assay) [% inh],"Emax (Homo sapiens, A549, 7 h) [%]"
5.98,,"CC(C(=O)Nc1nncs1)C(c1ccccc1)c1ccc(-c2ccc(C(=O)N3CCOCC3)cc2)s1 (single isomer, unassigned) [Example 144, 2-methyl-3-(5-(4-(4-morpholinylcarbonyl)phenyl)-2-thienyl)-3-phenyl-N-1,3,4-thiadiazol-2-ylpropanamide]",49.49,
64.6,,"CC(C(=O)Nc1nncs1)C(c1ccccc1)c1ccc(-c2ccc(C(=O)N3CCOCC3)cc2)s1 (single isomer, unassigned) [Example 145, 2-methyl-3-(5-(4-(4-morpholinylcarbonyl)phenyl)-2-thienyl)-3-phenyl-N-1,3,4-thiadiazol-2-ylpropanamide]",25.24,
14.6,,"CC(C(=O)Nc1nncs1)C(c1ccccc1)c1ccc(-c2ccc(C(=O)N(C)C)cc2)s1 (single isomer, unassigned) [Example 146, N,N-dimethyl-4-(5-(2-methyl-3-oxo-1-phenyl-3-(1,3,4-thiadiazol-2-ylamino)propyl)-2-thienyl)benzamide]",,59.1
168,,"CC(C(=O)Nc1nncs1)C(c1ccccc1)c1ccc(-c2ccc(C(=O)N(C)C)cc2)s1 (single isomer, unassigned) [Example 147, N,N-dimethyl-4-(5-(2-methyl-3-oxo-1-phenyl-3-(1,3,4-thiadiazol-2-ylamino)propyl)-2-thienyl)benzamide]",48.44,
24.6,,"CC(C(=O)Nc1nncs1)C(c1ccccc1)c1ccc(-c2ccc(C(=O)N(C)C)c(Cl)c2)s1 (single isomer, unassigned) [Example 148, 2-chloro-N,N-dimethyl-4-(5-(2-methyl-3-oxo-1-phenyl-3-(1,3,4-thiadiazol-2-ylamino)propyl)-2-thienyl)benzamide]",,51.5
216,,"CC(C(=O)Nc1nncs1)C(c1ccccc1)c1ccc(-c2ccc(C(=O)N(C)C)c(Cl)c2)s1 (single isomer, unassigned) [Example 149, 2-chloro-N,N-dimethyl-4-(5-(2-methyl-3-oxo-1-phenyl-3-(1,3,4-thiadiazol-2-ylamino)propyl)-2-thienyl)benzamide]",54.20,
17.5,,"CCN(C)C(=O)c1ccc(-c2ccc(C(c3ccccc3)C(C)C(=O)Nc3nncs3)s2)cc1 (single isomer, unassigned) [Example 150, N-ethyl-N-methyl-4-(5-(2-methyl-3-oxo-1-phenyl-3-(1,3,4-thiadiazol-2-ylamino)propyl)-2-thienyl)benzamide]",,57.2
203,,"CCN(C)C(=O)c1ccc(-c2ccc(C(c3ccccc3)C(C)C(=O)Nc3nncs3)s2)cc1 (single isomer, unassigned) [Example 151, N-ethyl-N-methyl-4-(5-(2-methyl-3-oxo-1-phenyl-3-(1,3,4-thiadiazol-2-ylamino)propyl)-2-thienyl)benzamide]",48.08,
,6.5,"CC(C)(C(=O)Nc1nncs1)C(c1cccc(F)c1)c1ccc(-c2ccc(C(=O)N3CCCC3)cc2)s1 (centres unmarked) [Example 41, 3-(3-fluorophenyl)-2,2-dimethyl-3-(5-(4-(1-pyrrolidinylcarbonyl)phenyl)-2-thienyl)-N-1,3,4-thiadiazol-2-ylpropanamide]",,65.5
,11.6,"CN(C)C(=O)c1ccc(-c2ccc(C(c3cccc(F)c3)C(C)(C)C(=O)Nc3nccs3)s2)cc1 (centres unmarked) [Example 42, 4-(5-(1-(3-Fluorophenyl)-2,2-dimethyl-3-oxo-3-(1,3-thiazol-2-ylamino)propyl)-2-thienyl)-N,N-dimethylbenzamide]",,42.9
10.7,,"CN(C)C(=O)c1ccc(-c2ccc(C(c3ccccc3)C(C)(C)C(=O)Nc3nncs3)s2)cc1Cl (centres unmarked) [Example 43, 2-Chloro-4-(5-(2,2-dimethyl-3-oxo-1-phenyl-3-(1,3,4-thiadiazol-2-ylamino)propyl)-2-thienyl)-N,N-dimethylbenzamide]",,38.4
,5.88,"CC(C)(C(=O)Nc1nncs1)C(c1ccccc1)c1ccc(-c2ccc(C(=O)N3CCOCC3)cc2)s1 (centres unmarked) [Example 45, 2,2-dimethyl-3-(5-(4-(4-morpholinylcarbonyl)phenyl)-2-thienyl)-3-phenyl-N-1,3,4-thiadiazol-2-ylpropanamide]",,51
,3.71,"CC(C)(C(=O)Nc1nncs1)C(c1ccccc1)c1ccc(-c2ccc(C(=O)N3CCCC3)cc2)s1 (centres unmarked) [Example 47, 2,2-dimethyl-3-phenyl-3-(5-(4-(1-pyrrolidinylcarbonyl)phenyl)-2-thienyl)-N-1,3,4-thiadiazol-2-ylpropanamide]",,39.9
,13.2,"CCN(C)C(=O)c1ccc(-c2ccc(C(c3ccccc3)C(C)(C)C(=O)Nc3nncs3)s2)cc1 (centres unmarked) [Example 50, 4-(5-(2,2-dimethyl-3-oxo-1-phenyl-3-(1,3,4-thiadiazol-2-ylamino)propyl)-2-thienyl)-N-ethyl-N-methylbenzamide]",,39.6
,12.1,"CC(C)(C(=O)Nc1nncs1)C(c1ccccc1)c1ccc(-c2ccc(C(=O)N3CCOCC3)c(Cl)c2)s1 (centres unmarked) [Example 52, 3-(5-(3-chloro-4-(4-morpholinylcarbonyl)phenyl)-2-thienyl)-2,2-dimethyl-3-phenyl-N-1,3,4-thiadiazol-2-ylpropanamide]",,38.5
,9.45,"CN(C)C(=O)c1ccc(-c2ccc(C(c3ccccc3)C(C)(C)C(=O)Nc3nccs3)s2)cc1 (centres unmarked) [Example 54, 4-(5-(2,2-Dimethyl-3-oxo-1-phenyl-3-(1,3-thiazol-2-ylamino)propyl)-2-thienyl)-N,N-dimethylbenzamide]",,62.4
